Data as given in ChEMBL document CHEMBL5724796, “Tm Shift (DSF) assay results for EUbOPEN Chemogenomics Library” (2024).
Residues, ends and D or L forms follow the SMILES beside them. *: point of attachment. Cbz = O=C(OCc1ccccc1)*; CH2F = FC*

Experiments:
Peregrin (Homo sapiens) = molecular target: T1, Peregrin (Homo sapiens) (UniProt P55201); conditions: Compound concentration 20.0 uM
T1 sequence (whole entry): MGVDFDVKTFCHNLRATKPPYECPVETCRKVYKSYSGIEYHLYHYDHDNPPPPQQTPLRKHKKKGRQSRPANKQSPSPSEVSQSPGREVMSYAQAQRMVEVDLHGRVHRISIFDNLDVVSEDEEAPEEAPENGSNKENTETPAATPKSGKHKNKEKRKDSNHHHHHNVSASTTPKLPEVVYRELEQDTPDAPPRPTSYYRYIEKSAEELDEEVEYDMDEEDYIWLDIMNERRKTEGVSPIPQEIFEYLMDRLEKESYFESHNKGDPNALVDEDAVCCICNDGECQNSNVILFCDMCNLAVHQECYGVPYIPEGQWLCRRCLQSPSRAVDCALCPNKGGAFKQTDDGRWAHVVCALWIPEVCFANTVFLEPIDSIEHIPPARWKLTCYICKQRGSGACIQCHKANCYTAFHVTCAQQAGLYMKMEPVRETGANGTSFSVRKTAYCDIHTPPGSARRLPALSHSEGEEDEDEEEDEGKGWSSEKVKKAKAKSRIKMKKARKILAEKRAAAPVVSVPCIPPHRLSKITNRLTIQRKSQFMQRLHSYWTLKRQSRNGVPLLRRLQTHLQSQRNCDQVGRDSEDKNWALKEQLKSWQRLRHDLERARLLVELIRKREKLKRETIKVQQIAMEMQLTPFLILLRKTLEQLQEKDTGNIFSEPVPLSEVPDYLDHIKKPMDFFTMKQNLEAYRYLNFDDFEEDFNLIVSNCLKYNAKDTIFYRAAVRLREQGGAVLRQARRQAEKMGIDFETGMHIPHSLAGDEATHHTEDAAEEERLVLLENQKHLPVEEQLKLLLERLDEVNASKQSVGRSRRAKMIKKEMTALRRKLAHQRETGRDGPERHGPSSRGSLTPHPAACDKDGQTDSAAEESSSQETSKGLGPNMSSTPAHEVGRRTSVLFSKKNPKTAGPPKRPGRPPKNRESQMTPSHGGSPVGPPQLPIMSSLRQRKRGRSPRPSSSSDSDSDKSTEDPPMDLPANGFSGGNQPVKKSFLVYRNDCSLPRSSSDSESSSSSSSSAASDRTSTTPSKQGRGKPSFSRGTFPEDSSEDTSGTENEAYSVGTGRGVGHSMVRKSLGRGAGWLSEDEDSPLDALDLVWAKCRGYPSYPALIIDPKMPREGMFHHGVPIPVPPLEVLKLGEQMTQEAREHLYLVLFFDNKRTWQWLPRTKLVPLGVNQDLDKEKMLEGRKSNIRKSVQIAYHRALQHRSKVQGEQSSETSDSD

[1] = molecular target: Fibroblast growth factor receptor 2 (Homo sapiens) (UniProt P21802); conditions: Compound concentration 20.0 uM
Sequence of Fibroblast growth factor receptor 2 (Homo sapiens) (P21802 22-821 limits assumed): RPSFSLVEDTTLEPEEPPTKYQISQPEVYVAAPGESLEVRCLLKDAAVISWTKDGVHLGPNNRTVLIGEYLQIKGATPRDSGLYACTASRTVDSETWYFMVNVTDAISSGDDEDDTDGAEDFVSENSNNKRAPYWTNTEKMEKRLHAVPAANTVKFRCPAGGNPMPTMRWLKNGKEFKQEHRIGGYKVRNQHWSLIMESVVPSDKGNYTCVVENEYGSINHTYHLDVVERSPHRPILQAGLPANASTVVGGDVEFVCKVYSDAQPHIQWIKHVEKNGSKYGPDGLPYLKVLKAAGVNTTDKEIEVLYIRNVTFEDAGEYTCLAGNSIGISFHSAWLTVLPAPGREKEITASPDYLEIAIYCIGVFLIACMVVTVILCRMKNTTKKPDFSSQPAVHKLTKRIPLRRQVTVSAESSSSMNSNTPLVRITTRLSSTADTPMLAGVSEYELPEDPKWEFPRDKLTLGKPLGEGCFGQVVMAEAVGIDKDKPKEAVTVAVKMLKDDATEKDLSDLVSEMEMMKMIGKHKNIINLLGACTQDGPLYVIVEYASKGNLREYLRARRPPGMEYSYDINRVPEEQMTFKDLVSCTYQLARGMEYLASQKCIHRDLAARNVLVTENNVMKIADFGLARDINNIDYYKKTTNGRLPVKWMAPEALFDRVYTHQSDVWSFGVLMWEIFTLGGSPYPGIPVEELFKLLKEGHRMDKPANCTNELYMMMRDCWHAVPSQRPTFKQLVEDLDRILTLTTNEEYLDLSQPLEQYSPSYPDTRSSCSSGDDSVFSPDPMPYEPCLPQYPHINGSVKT
Description: Thermal Shift Assay. Domain: start/stop: T457-E768

| SMILES | ΔTm (Peregrin (Homo sapiens)) | ΔTm [1] |
| --- | --- | --- |
| CC(=O)N[C@@H](Cc1ccc(O)cc1)C(=O)N[C@H](C(=O)N[C@@H](C)C(=O)N[C@@H](CC(=O)O)C(=O)COC(=O)c1c(C)cccc1C)C(C)C | -1.58 °C | 0.82 °C |
| Cn1cc(C(=O)Nc2ccc([C@@H]3C[C@H]3NCC3CC3)cc2)cn1 | 0.16 °C | -0.53 °C |
| CN1CCN(c2nc(-c3ccc(C(=O)NC4(C(=O)NCC#N)CCCCC4)cc3)cs2)CC1 | -1.32 °C | 0.15 °C |
| COc1ccc(C2C(C#N)=C(N)OC3=C2C(=O)CC(c2cccc4ccccc24)C3)cc1 (stereo not given) | 0.11 °C | -0.92 °C |
| CCC(=O)N[C@H]1CC[C@@H](C(=O)N(C)c2ccc(-c3nc4ccccc4o3)cc2)C1 | 0.27 °C | 0.23 °C |
| Cc1cc(C)cc(Oc2ccc(CNC(=O)[C@H](C)N)cc2C)c1 | -1.68 °C | 0.01 °C |
| COc1cc(C)[nH]c(=O)c1CNC(=O)c1c(C)n([C@H](C)C2CCN(CC(F)(F)F)CC2)c2ccccc12 | -1.59 °C | 0.91 °C |
| Cn1c(OC[C@H]2CC[C@H](C(F)(F)F)CC2)nn2c(C3CCOCC3)ncc2c1=O | 2.25 °C | -0.94 °C |
| C[C@H](CN[C@@H](C(=O)Nc1ccc(-c2cnn(C)c2)cn1)c1ccccc1)c1ccc(C#N)cc1 | -3.43 °C | 0.96 °C |
| NC(=O)C1CCCc2c1[nH]c1ccc(Cl)cc21 (stereo not given) | 2.61 °C | 0.23 °C |
| Cc1c(CN2CCC(Nc3ncnc4sc(CC(F)(F)F)cc34)CC2)ccc2c1cc(C#N)n2Cc1cn[nH]c1 | 2.02 °C | -1.27 °C |
| CN(CCOc1ccc(-c2ccc3c(c2)OCO3)cc1C(C)(C)C)CC(=O)O | 2.31 °C | -0.25 °C |
| CC(=O)N[C@@H](Cc1ccc(O)cc1)C(=O)N[C@H](C(=O)N[C@@H](C)C(=O)N[C@@H](CC(=O)O)C(=O)CCl)C(C)C | -1.75 °C | 0.63 °C |
| Cc1c(CN2CCC(Nc3ncnc4sc(CC(F)(F)F)cc34)CC2)ccc2[nH]c(C#N)cc12 | -2.53 °C | 0.11 °C |
| O=C1Cc2cc(C(=O)N[C@@H]3C[C@H]4CC[C@@H](C3)N4S(=O)(=O)CC3CCN(CCCC(F)(F)F)CC3)c(Cl)cc2N1 | -0.66 °C | -0.16 °C |
| O=[N+]([O-])c1c(Nc2cc(F)cc(Cl)c2)ccc2nonc12 | 0.04 °C | -0.15 °C |
| Cc1cc(C(=O)CN2CCC(O)CC2)c(C)n1-c1ccc(C#N)cc1 | 1.04 °C | -0.17 °C |
| CCOc1ccc2nc(-c3cccc(OCC(=O)NC(C)C)c3)nc(Nc3ccc(-c4cn[nH]c4)cc3)c2c1 | 2.82 °C | -0.59 °C |
| CN1Cc2c(Cl)cc(Cl)cc2[C@H](c2cccc(S(=O)(=O)NCCOCCOCCNC(=O)NCCCCNC(=O)NCCOCCOCCNS(=O)(=O)c3cccc([C@@H]4CN(C)Cc5c(Cl)cc(Cl)cc54)c3)c2)C1 | 0.43 °C | -0.42 °C |
| O=C1C(P(=O)(O)O)CC(O)N1O (stereo not given) | 1.52 °C | -0.05 °C |
| CC(c1cccc2ccccc12)n1cnc2c(=O)[nH]c(Cc3ccccc3)nc21 (stereo not given) | -0.65 °C | -1.64 °C |
| CCCc1nc(C)c2c(=O)nc(-c3cc(S(=O)(=O)N4CCN(CC)CC4)ccc3OCC)[nH]n12 | 1.02 °C | 0.41 °C |
| O=C(N1CCCC[C@H]1Cc1ccccc1)n1cc(-c2ccc(-c3ccccc3)cc2)nn1 | 1 °C | 0.8 °C |
| CN(CC[C@@H](Oc1ccc(-c2ccccc2)cc1)c1ccc(F)cc1)CC(=O)O | -0.36 °C | 0.18 °C |
| CC(C)(O)c1ccc(-c2nc3c(F)cc(F)cc3c(=O)[nH]2)cc1 | -0.9 °C | -3.32 °C |

| SMILES | ΔTm (Peregrin (Homo sapiens)) | ΔTm [1] |
| --- | --- | --- |
| Cc1ncccc1-c1cnc(NCc2c(F)ccc3c2CCO3)n2cnnc12 | -0.54 °C | -0.09 °C |
| CCOC(=O)Oc1c(OC)cc(C(=O)O[C@H]2C[C@H]3CN4CCc5c([nH]c6cc(OC)ccc56)[C@@H]4C[C@H]3[C@@H](C(=O)OC)[C@@H]2OC)cc1OC | 2.92 °C | -1.05 °C |
| CCn1nc(C2CC2)cc1Nc1nc(C(=O)NC)nc2[nH]c3cc(-c4c(C)noc4C)c(OC)cc3c12 | 0.68 °C | -0.1 °C |
| COc1cc2c(NCC3CCN(C)CC3)cc(-c3ccc(C)o3)nc2cc1OCCCN1CCCC1 | -0.88 °C | 0.16 °C |
| COCCOc1cc(CC2CCN(CCc3ccc4c(c3)C(=O)CCO4)CC2)ccc1Br | 1.8 °C | -0.65 °C |
| Cc1cc(/N=N/c2ccc(S(=O)(=O)Nc3ccccn3)cc2)c(N)cc1O | 5.09 °C | 0.17 °C |
| CNC(=O)O[C@H]1COc2ccc(N3CCN(C4COC4)CC3)cc2[C@@H]1NC(=O)c1ccc(F)cc1 | -1.56 °C | 0.9 °C |
| CCCC[C@]1(CC)CS(=O)(=O)c2cc(CNC(CC(=O)O)CC(=O)O)c(OC)cc2[C@@H](c2ccccc2)N1 | 1.87 °C | 0.6 °C |
| CNC(=O)c1cc(Nc2ccnc(Nc3ccc(CCNC(=O)OC(C)(C)C)cc3)n2)n[nH]1 | -1.87 °C | 0.64 °C |
| Cn1c(=O)cc(N2CCC[C@@H](N)C2)n(Cc2ccccc2C#N)c1=O | 2.35 °C | 0.81 °C |
| CCS(=O)(=O)Cc1cnc(Oc2ccc(F)cc2F)c(-c2cc(C)c3c(=O)[nH]ccn23)c1 | 2.87 °C | 0.35 °C |
| N[C@H]1CC[C@H](N[C@@H]2C[C@H]2c2ccccc2)CC1 | 1.23 °C | 0.55 °C |
| N#Cc1ccc([C@H]2CCCC[C@H]2O)cc1C(F)(F)F | -0.66 °C | -0.09 °C |
| CCNC(=O)NCCSC[C@H]1O[C@@H](n2cnc3c(N)ncnc32)[C@H](O)[C@@H]1O | -1.31 °C | 0.95 °C |
| CC(C)c1ccc(C(=O)N=C(N)N)cc1S(C)(=O)=O | -0.14 °C | -0.34 °C |
| O=C(CN1CCN(c2ccc(F)cn2)CC1)Nc1nc2c(s1)CCCC2 | 2.63 °C | -0.21 °C |
| COc1cc2/c(=N/c3ccc(Br)cc3F)nc[nH]c2cc1OCC1CCN(C)CC1 | -0.84 °C | 5.47 °C |
| CN1[C@@H]2CC[C@H]1C[C@@H](OC(c1ccc(F)cc1)c1ccc(F)cc1)C2 | -0.08 °C | -0.72 °C |
| O=C(C1CC1)N1CCN(Cn2sc3ccccc3c2=O)CC1 | -1.36 °C | 0.46 °C |
| O=C(c1cc(Cl)c(O)c(Cl)c1)N1CS(=O)(=O)c2ccccc21 | 1.35 °C | 0.39 °C |
| O=c1[nH]ccc2cc(F)c(NS(=O)(=O)c3ccc(N4CC[C@@H](O)C4)s3)cc12 | -1.14 °C | 0.54 °C |
| C[C@@H]1CN(c2ncc(Cl)c(Nc3ccc4c(c3)n(CCC(C)(C)O)c(=O)n4C)n2)C[C@H](C)C1(F)F | -5.71 °C | -3.16 °C |
| C[C@@H](Oc1ccc(CNC(=O)c2cccnc2Oc2ccc3c(c2)OCO3)c(F)c1)C(=O)O | 3.08 °C | 0.14 °C |
| Cc1cc(C)c(CNC(=O)c2cc(Cl)c3c(c2C)O[C@@](C)([C@H]2CC[C@H](N(C)C)CC2)O3)c(=O)[nH]1 | -0.71 °C | -1.83 °C |
| COC(=O)CC(NC(=O)C(C)NC(=O)C(NC(=O)C(CC(=O)OC)NC(=O)C(NC(=O)OCc1ccccc1)C(C)C)C(C)C)C(=O)CF (stereo not given) (Cbz-VD(OMe)VAD(OMe)-CH2F; configuration not given here) | 2.28 °C | -0.48 °C |
